This assay addresses Rat α3β4β3 (Rattus norvegicus, UniProt P04757+P12391+P12392). In words: Voltage clamp of Xenopus oocytes expressing α3β4β3 nAChR. Set-up: expressed in transfected cells; host or cells: Xenopus laevis oocytes injected with subunit cRNAs; clones from Dr. Jim Boulter (UCLA). Format: cell-based. As for the experimental part:
Mature (>9 cm) female Xenopus laevis African frogs (NASCO, Ft. Atkinson, Wis.) were used as a source of oocytes. Prior to surgery, frogs were anesthetized by placing the animal in a 1.5 g/l solution of MS222 (3-aminobenzoic acid ethyl ester) for 30 minutes. Oocytes were removed from an incision made in the abdomen.
In order to remove the follicular cell layer, harvested oocytes were treated with 1.25 mg/ml collagenase from Worthington Biochemical Corporation (Freehold, N.J.) for 2 hours at room temperature in calcium-free Barth's solution (88 mM NaCl, 10 mM HEPES pH 7.6, 0.33 mM MgSO4, 0.1 mg/ml gentamicin sulfate). Subsequently, stage 5 oocytes were isolated and injected with 50 nl (5-20 ng) each of the appropriate subunit cRNAs. Recordings were made 2 to 15 days after injection.
Rat neuronal nAChR clones and mouse muscle nAChR cDNA clones were used. The wild-type clones were obtained from Dr. Jim Boulter (UCLA). The rat α6/3 (Dowell et al. J Neurosci, 2003, 23:8445-8452) clone was obtained from Michael McIntosh (University of Utah) and expressed in Xenopus oocytes in combinations with rat β2 and β3. […] The TM2 domain is understood to line the pore of the channel, with alpha helix structure. The 7′ position may actually be directed away from the actual pore lining, but this residue is highly conserved in all of the nAChR. It is valine in all of them except α9 (isoleucine) and β1, where it is alanine. The TM2 mutation in the α6/3 chimera was corrected by using QuickChange (Stratagene) according to their protocols. The corrected α6/3 chimera sequence was confirmed by restriction diagnostics and by automated fluorescent sequencing (University of Florida core facility). The corrected clone was expressed as above in Xenopus oocytes with β2 and β3 and compared to the wild-type α3 co-expressed with β2 and β3.
After linearization and purification of cloned cDNAs, RNA transcripts were prepared in vitro using the appropriate mMessage mMachine kit from Ambion Inc. (Austin, Tex.).
Electrophysiology. The majority of experiments were conducted using OpusXpress 6000A (Axon Instruments, Union City Calif.). OpusXpress is an integrated system that provides automated impalement and voltage clamp of up to eight oocytes in parallel. Cells were automatically perfused with bath solution, and agonist solutions were delivered from a 96-well plate. Both the voltage and current electrodes were filled with 3 M KCl. The agonist solutions were applied via disposable tips, which eliminated any possibility of cross-contamination. Drug applications alternated between ACh controls and experimental applications. Flow rates were set at 2 ml/min for experiments with α7 receptors and 4 ml/min for other subtypes. Cells were voltage-clamped at a holding potential of −60 mV. Data were collected at 50 Hz and filtered at 20 Hz. Agonist applications were 12 seconds in duration followed by 181-second washout periods for α7 receptors and 8 seconds with 241-second wash periods for other subtypes. For some experiments, particularly under conditions where residual inhibition precluded making repeated measurements from single cells (see below), manual oocyte recordings were made as previously described (Papke and Papke Br J of Pharmacol, 2002, 137:49-61). In brief, Warner Instruments (Hamden, Conn.) OC-725C oocyte amplifiers were used, and data were acquired with a minidigi or digidata 1200A with pClamp9 software (Axon Instruments). Sampling rates were between 10 and 20 Hz and the data were filtered at 6 Hz. […]

Like-named read-outs stand apart in the source and are kept apart here.

Sequence of Rat α3β4β3 (P04757 26-499): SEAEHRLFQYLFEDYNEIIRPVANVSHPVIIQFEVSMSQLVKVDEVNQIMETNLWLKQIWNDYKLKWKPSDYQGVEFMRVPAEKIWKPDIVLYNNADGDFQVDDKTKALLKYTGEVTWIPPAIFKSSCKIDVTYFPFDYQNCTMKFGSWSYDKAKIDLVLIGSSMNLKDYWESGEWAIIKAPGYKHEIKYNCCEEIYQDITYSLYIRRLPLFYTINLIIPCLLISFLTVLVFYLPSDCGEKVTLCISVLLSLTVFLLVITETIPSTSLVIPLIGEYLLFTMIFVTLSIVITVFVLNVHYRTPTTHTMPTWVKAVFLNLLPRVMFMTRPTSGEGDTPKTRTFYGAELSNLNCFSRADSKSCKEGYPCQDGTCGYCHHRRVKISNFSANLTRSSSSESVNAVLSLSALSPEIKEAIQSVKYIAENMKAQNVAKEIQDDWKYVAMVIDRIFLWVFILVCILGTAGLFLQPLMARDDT
Sequence of Rat α3β4β3 (P12392 21-495): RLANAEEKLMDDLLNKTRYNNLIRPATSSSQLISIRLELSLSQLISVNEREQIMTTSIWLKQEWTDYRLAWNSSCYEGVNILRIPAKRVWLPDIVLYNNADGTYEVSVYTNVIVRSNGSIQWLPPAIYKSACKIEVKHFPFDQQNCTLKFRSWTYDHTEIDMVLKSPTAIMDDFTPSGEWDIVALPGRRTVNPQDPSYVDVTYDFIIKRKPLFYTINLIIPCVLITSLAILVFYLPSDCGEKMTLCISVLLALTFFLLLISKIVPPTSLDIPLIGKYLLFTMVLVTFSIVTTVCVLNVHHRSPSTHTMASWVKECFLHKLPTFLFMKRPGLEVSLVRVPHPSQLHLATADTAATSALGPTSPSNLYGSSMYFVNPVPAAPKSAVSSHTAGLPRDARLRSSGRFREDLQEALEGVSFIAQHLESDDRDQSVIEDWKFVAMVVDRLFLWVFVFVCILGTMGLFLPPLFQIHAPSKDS
Sequence of Rat α3β4β3 (P12391 31-464): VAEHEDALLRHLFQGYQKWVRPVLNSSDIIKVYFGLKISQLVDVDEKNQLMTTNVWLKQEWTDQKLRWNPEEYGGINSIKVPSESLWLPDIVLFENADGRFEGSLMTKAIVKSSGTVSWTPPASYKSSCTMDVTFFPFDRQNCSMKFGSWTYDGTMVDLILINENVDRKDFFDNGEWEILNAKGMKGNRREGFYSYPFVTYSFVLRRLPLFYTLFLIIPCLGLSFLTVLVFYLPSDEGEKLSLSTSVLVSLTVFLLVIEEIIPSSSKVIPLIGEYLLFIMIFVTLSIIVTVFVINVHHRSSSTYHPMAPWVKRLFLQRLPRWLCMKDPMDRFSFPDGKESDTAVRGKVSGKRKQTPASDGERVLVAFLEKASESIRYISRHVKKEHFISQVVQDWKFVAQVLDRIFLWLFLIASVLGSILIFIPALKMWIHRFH

Regarding `CCCCCCC(=O)OC1CC(C)(C)NC(C)(C)C1` [TMPH, 2,2,6,6-tetramethylpiperidin-4-yl heptanoate], the IC50 (usually the concentration that inhibits the measured activity by half) (decrease in net charge, 100 μM ACh co-applied with TMPH, read-out: IC50 (area)) is 1400 ± 200 nM; the half-maximal inhibitory concentration (IC50) (decrease in peak current amplitude, 100 μM ACh co-applied with TMPH, read-out: IC50 (peak)) is 1900 ± 200 nM; the 50% inhibitory concentration (IC50) (inhibition still present after 5-minute wash, read-out: IC50 (recovery), 2 site model, site with 85% of the fit) amounted to 30000 nM. Moreover, the “IC50 net charge/IC50 peak” value (ratio) was 0.74. Besides, the “IC50 recovery/IC50 net charge, 2-site model, second value” (ratio, recovery site of IC50 30 μM) worked out at 21.

Values taken from patent US7531555B2, “Compositions and methods for selective inhibition of nicotine acetylcholine receptors” (University of Florida Research Foundation, Inc., priority 2003, dated 2009).
